Experimental data: patent US10017481B2, “Conformationally constrained, fully synthetic macrocyclic compounds” (POLYPHOR AG, priority 2012, dated 2018)

Legend:
Format in all cases: in vitro ADME
[1] = Metabolic stability assay, CD-1 mouse microsomes; conditions: for Metabolic Stability 60 min mouse/(rat) [% remain.] / half-life at 10 μM: CD-1 mouse microsomes, 10 μM, 37° C.; for half-life at 10 μM: both sexes, 1 mg/ml protein, read-out: Metabolic Stability T ½ [min] mouse/(rat)
Description: (§1) 5. Plasma and Metabolic Stability Assays
(§2) Example compounds were dissolved in DMSO/H2O 90:10 to a final concentration of 10 mM for plasma stability determination and metabolic stability determination.
(§3) The assays were conducted according to literature precedents (F. P. Guengerich, Analysis and Characterization of Enzymes; in: Principles and Methods of Toxicology, A. W. Hayes (Ed.) Raven Press: New York, 1989, 777-813; R. Singh et al., In vitro metabolism of a potent HIV-protease inhibitor (141W94) using rat, monkey and human liver S9, Rapid Commun. Mass Spectrom. 1996, 10, 1019-1026).
(§4) Metabolic Stability Assay
(§5) Microsomes from a human 50 donor mixed gender pool and 1:1 mixtures of microsomes from CD-1 mouse single-gender pools are purchased from Celsis (Belgium). The enzymatic reaction is performed in a buffer containing an NADPH regeneration system and microsomes with the following end concentrations: 100 mM potassium phosphate buffer (all from Sigma), 1 mg/mL glucose-6-phosphate, 1 mg/mL β-nicotinamide adenine dinucleotide phosphate (NADP), 0.65 mg/mL magnesium chloride, 0.8 units/mL of glucose-6-phosphate dehydrogenase (prediluted with 5 mM citrate buffer), 10 μM compound and 1 mg/ml microsomal protein. Compounds are incubated at 37° C. in duplicates and samples are taken after 0, 5, 10, 20 and 60 minutes. After acetonitrile precipitation (3 volumes), shaking (2 minutes, 600 rpm) followed by centrifugation (10 minutes, 3200 g), the supernatant is dried reconstituted in the suitable solvent (cf. Table 33) and analyzed by HPLC/MS/MS. Metabolic turnover is expressed in % of the initial 0 minutes value and half life T½ (min) is calculated. Verapamil for human and propranolol for mouse are used as reference and are assayed with every experimental set.

[2] = Metabolic stability assay, human liver microsomes; conditions: for half-life at 10 μM: both sexes, liver microsomes, 1 mg/ml protein, read-out: Metabolic Stability T ½ [min] hum; for half-life at 10 μM / Metabolic Stability 60 min hum [% remain.]: human microsomes, 37° C., 10 μM
Description: as §1, §2, §3, §4, §5

[3] = Plasma stability assay, CD-1 mouse plasma; conditions: for Plasma Stability 240 min mouse/(rat) [% remain.]: CD-1 mouse plasma, 10 μM, 37° C.; for half-life at 10 μM: both sexes, CD-1, mouse
Description: (§6) 5. Plasma and Metabolic Stability Assays Example compounds were dissolved in DMSO/H2O 90:10 to a final concentration of 10 mM for plasma stability determination and metabolic stability determination. The assays were conducted according to literature precedents (F. P. Guengerich, Analysis and Characterization of Enzymes; in: Principles and Methods of Toxicology, A. W. Hayes (Ed.) Raven Press: New York, 1989, 777-813; R. Singh et al., In vitro metabolism of a potent HIV-protease inhibitor (141W94) using rat, monkey and human liver S9, Rapid Commun. Mass Spectrom. 1996, 10, 1019-1026). Plasma Stability Assay Human plasma (Blutspendedienst SRK, Basel) and CD-1 mouse plasma (mixed gender pool >50 animals, Innovative Research, Calif., USA) are both sodium citrate stabilized. The assay is performed in triplicates at 10 μM compound concentration and 37° C. Samples are taken at 0, 15, 30, 60, 120 and 240 minutes and stopped by precipitation with 3 volumes of acetonitrile/formic acid 98:2 and shaking (2 minutes, 600 rpm) followed by filtration (−20 mm Hg). The filtrate is collected. The filtrate (100 μL) is evaporated and reconstituted in the suitable solvent (cf. Table 33) to be analyzed by HPLC/MS/MS. The resulting peak area counts are expressed in percent of the 0 value and used to determine the endpoint stability in % and the half life T in minutes. In order to monitor assay integrity the degradation of propantheline is assayed with every experimental set.

[4] = Plasma stability assay, human plasma; conditions: for Plasma Stability 240 min hum [% remain.]: human plasma, 10 μM, 37° C.
Description: as §6

Metabolic Stability 60 min mouse/(rat) [% remain.] [1] [% remain.] | half-life at 10 μM [1] [min] | half-life at 10 μM [2] [min] | Metabolic Stability 60 min hum [% remain.] [2] [% remain.] | Plasma Stability 240 min mouse/(rat) [% remain.] [3] [% remain.] | half-life at 10 μM ([3]; plasma) [h] | Plasma Stability 240 min hum [% remain.] [4] [% remain.] | half-life at 10 μM ([4]; human, plasma) [h] | Metabolic Stability T ½ [min] mouse/(rat) ([1]; microsomes) [min] | Metabolic Stability T ½ [min] hum ([2]; human, microsomes) [min] | Plasma Stability T ½ [min] mouse/(rat) ([3]; plasma) [min] | Plasma Stability T ½ [min] hum ([4]; human, plasma) [min] | SMILES
77 | > 60 | > 60 | 68 | 83 | > 4 | 100 | > 4 | – | – | – | – | CNC(=O)[C@@H]1CCC(=O)N[C@H](C)COc2ccc(OC)cc2-c2cccc(c2)C(=O)N1C [Ex. 44, (10R,15S)-4-methoxy-N,10,16-trimethyl-12,17-dioxo-8-oxa-11,16-diazatricyclo[16.3.1.0^2,7]docosa-1(22),2,4,6,18,20-hexaene-15-carboxamide]
100 | > 60 | > 60 | 83 | 86 | > 4 | 99 | > 4 | – | – | – | – | COc1ccc2c(c1)-c1cccc(c1)C(=O)N(C)[C@H](C(=O)NCCN(C)C)CCC(=O)N[C@H](C)CO2 [Ex. 47, (10R,15S)-N-[2-(dimethylamino)ethyl]-4-methoxy-10,16-dimethyl-12,17-dioxo-8-oxa-11,16-diazatricyclo[16.3.1.0^2,7]docosa-1(22),2,4,6,18,20-hexaene-15-carboxamide]
73 | > 60 | > 60 | 95 | 60 | > 4 | 100 | > 4 | – | – | – | – | C[C@H]1COc2cccc(c2)-c2cccc(c2)C(=O)N(C)[C@H](C(=O)NC2CC2)CCC(=O)N1 [Ex. 79, (9S,14S)-N-cyclopropyl-9,15-dimethyl-11,16-dioxo-7-oxa-10,15-diazatricyclo[15.3.1.1^2,6]docosa-1(21),2(22),3,5,17,19-hexaene-14-carboxamide]
30 | 35 | 22 | 14 | 65 | > 4 | 100 | > 4 | – | – | – | – | C[C@H]1COc2cccc(c2)-c2cccc(c2)C(=O)N(C)[C@H](C(=O)Nc2ccccc2)CCC(=O)N1 [Ex. 72, (9S,14S)-9,15-dimethyl-11,16-dioxo-N-phenyl-7-oxa-10,15-diazatricyclo[15.3.1.1^2,6] docosa-1(21),2(22),3,5,17,19-hexaene-14-carboxamide]
100 | > 60 | > 60 | 100 | 100 | > 4 | 91 | > 4 | – | – | – | – | COc1ccc2c(c1)-c1cccc(c1)C(=O)N(C)[C@H](C(=O)O)CCC(=O)N[C@H](C)CO2 [Ex. 42, (10R,15S)-4-methoxy-10,16-dimethyl-12,17-dioxo-8-oxa-11,16-diazatricyclo[16.3.1.0^2,7]docosa-1(22),2,4,6,18,20-hexaene-15-carboxylic acid]
2 | 10 | 13 | 8 | 76 | > 4 | 100 | > 4 | – | – | – | – | C[C@H]1COc2cccc(c2)-c2cccc(c2)C(=O)N(C)[C@H](C(=O)NCc2ccc3ccccc3c2)CCC(=O)N1 [Ex. 89, (9S,14S)-9,15-dimethyl-N-(2-naphthylmethyl)-11,16-dioxo-7-oxa-10,15-diazatricyclo[15.3.1.1^2,6]docosa-1(21),2(22),3,5,17,19-hexaene-14-carboxamide]
82 | > 60 | > 60 | 60 | 100 | > 4 | 100 | > 4 | – | – | – | – | COc1ccc2c(c1)-c1cccc(c1)C(=O)N(C)[C@H](C(=O)NCC(C)C)CCC(=O)N[C@H](C)CO2 [Ex. 54, (10R,15S)-N-isobutyl-4-methoxy-10,16-dimethyl-12,17-dioxo-8-oxa-11,16-diazatricyclo[16.3.1.0^2,7]docosa-1(22),2,4,6,18,20-hexaene-15-carboxamide]
73 | > 60 | > 60 | 66 | 46 | 3.17 | 76 | > 4 | – | – | – | – | COc1ccc2c(c1)-c1cccc(c1)C(=O)N(C)[C@H](C(=O)Nc1ccccc1)CCC(=O)N[C@H](C)CO2 [Ex. 45, (10R,15S)-4-methoxy-10,16-dimethyl-12,17-dioxo-N-phenyl-8-oxa-11,16-diazatricyclo[16.3.1.0^2,7]docosa-1(22),2,4,6,18,20-hexaene-15-carboxamide]
71 | > 60 | > 60 | 97 | 56 | > 4 | 99 | > 4 | – | – | – | – | C[C@H]1COc2cccc(c2)-c2cccc(c2)C(=O)N(C)[C@H](C(=O)NCCN(C)C)CCC(=O)N1 [Ex. 84, (9S,14S)-N-[2-(dimethylamino)ethyl]-9,15-dimethyl-11,16-dioxo-7-oxa-10,15-diazatricyclo[15.3.1.1^2,6]docosa-1(21),2(22),3,5,17,19-hexaene-14-carboxamide]
63 | 60 | 27 | 17 | 90 | > 4 | 100 | > 4 | – | – | – | – | C[C@H]1COc2cccc(c2)-c2cccc(c2)C(=O)N(C)[C@H](C(=O)N2CCOCC2)CCC(=O)N1 [Ex. 87, (9S,14S)-9,15-dimethyl-14-(morpholinocarbonyl)-7-oxa-10,15-diazatricyclo [15.3.1.1^2,6]docosa-1(21),2(22),3,5,17,19-hexaene-11,16-dione]
– | – | – | – | – | – | – | – | >60 | >60 | >240 | >240 | COc1ccc2c(c1)-c1cccc(c1)C(=O)N(C)[C@H](C(=O)N(C)CCN(C)C)CCC(=O)N[C@H](C)CO2 [Ex. 59, (10R15S)-N-[2-(dimethylamino)ethyl]-4-methoxy-N,10,16-trimethyl-12,17-dioxo-8-oxa-11,16-diazatricyclo[16.3.1.0^2,7]docosa-1(22),2,4,6,18,20-hexaene-15-carboxamide]
